Entries after “also recorded” stand apart in the source; their conditions may differ. One block for each compound: values may come before it.
Columns and labels:
[1] = Alamar blue cytotoxicity assay; assay type: cell-based, mouse; details: mouse, Neuro2A (N2A) neuroblastoma cells, highest tested concentration (20 μM), 40 h, normalized to DMSO-only control, read-out: cell viability
Experimental: (§1) Mouse neuroblastoma Neuro2A (N2A) cell lines were purchased from the American Type Culture Collection (ATCC), Manassas, VA, USA. Cells were grown in DMEM/10% FBS, which is the regular growth media for N2A cells, in a humidified atmosphere with 5% CO2 at 37 °C. N2A cells were seeded in a clear 96-well plate (2.5 × 10^4/well) with DMEM/10% FBS. The media was changed to DMEM/N-2 media 24 h later. After 1 h, the treatment reagents were added. Owing to the poor solubility of compounds in the media, the final amount of DMSO used was 1% (v/v). After an additional incubation of 40 h, Alamar Blue solution was added to each well, and the cells were incubated for 90 min at 37 °C. Fluorescence intensity was measured at 590 nm (excitation wavelength = 560 nm).
(§2) The Alamar Blue assay was carried out as described, with the following treatment reagents: 20 μM compounds, 10 μM compounds, 5 μM compounds, and 2 μM compounds.

[2] = target: T1, soluble Aβ42 aggregates (sAβ) (Homo sapiens, UniProt P05067); assay: Fluorescence spectra of compounds with soluble Aβ42 aggregates; assay type: binding; details: excitation 380 nm; compound 5.0 µM in PBS with soluble Aβ aggregates
T1 construct: commercial Aβ42 peptide (AnaSpec or GL Biochem); purchased AnaSpec or GL Biochem
T1 sequence (P05067 672-713 limits assumed): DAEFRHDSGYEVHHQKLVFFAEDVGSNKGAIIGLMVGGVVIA
Experimental: (§3) All fluorescence measurements were performed using a SpectraMax M2e plate reader (Molecular Devices, San Jose, CA, USA). The fluorescence spectra of the compounds’ solution (100 μL PBS, 5.0 µM) were recorded with excitation at 380 nm and an emission wavelength from 400 to 680 nm. To PBS solutions (100 μL) of the compounds (5.0 µM), various Aβ42 species were added, with final concentrations of 5.0 µM and 25.0 µM, and their fluorescence spectra (λmax of emission) were determined as described above.
(§4) Aβ42 powder was prepared by dissolving commercial Aβ42 peptide (AnaSpec or GL Biochem) in ammonium hydroxide solution (1%, v/v). The solution was then aliquoted out and lyophilized overnight. The resulting aliquoted powder was stored at −80 °C. Aβ42 monomers were generated by dissolving Aβ42 powder in 1,1,1,3,3,3-hexafluoro-2-propanol (HFIP, 1 mM) and incubating for 1 h at room temperature. The solution was then evaporated overnight and dried by vacuum centrifuge to result in monomeric films. Aβ42 fibrils were generated by dissolving the monomeric Aβ42 films in DMSO, diluting into the appropriate buffer, and incubating for 24 h at 37 °C with continuous agitation (final DMSO concentration was <2%). For the preparation of Aβ42 oligomers, the peptides were suspended in PBS buffer and incubated overnight at 4 °C.

[3] = Fluorescence spectra of the compounds alone in PBS; assay type: physicochemical; details: excitation 380 nm; compound 5.0 µM in PBS
Experimental: as §3

[4] = Log D measurement octanol/PBS; assay type: physicochemical; details: octanol / PBS pH 7.4, 10 μM, triplicate, ± SD
Experimental: The determination of log D values for N-alkylamino multifunctional compounds was performed using a slightly modified reported procedure. The compounds (final concentration 10 μM) were added to the premix suspension containing 0.5 mL octanol and 0.5 mL octanol-saturated PBS buffer (pH = 7.4). The resulting mixture was stirred vigorously for 5 min and centrifuged at 2000 rpm for 5 min. The octanol layer was separated from the PBS layer, and the fluorescence spectrum was recorded. The remaining 0.5 mL PBS layer was partitioned with 0.5 mL PBS-saturated octanol, and the octanol layer was separated after 5 min of vigorous shaking and centrifuging. The fluorescence spectrum of the octanol layer was recorded. The log D value was calculated based on the fluorescence intensity ratio for the two octanol layers. Each experiment was completed in triplicate, and the error represents the standard deviation for the average log D values.

[5] = target: T2, amyloid plaques in 5xFAD mice brain sections (Homo sapiens, UniProt P05067); assay: Histological staining of 5xFAD mice brain sections, colocalization with HJ3.4 antibody; assay type: binding, mouse; details: 11-month-old 5xFAD mice brain sections, compound 25 μM, HJ3.4 1 μg/mL
T2 construct: the amyloid beta (Aβ) peptide that makes up amyloid plaques; tissue Jackson Laboratories; host or cells: brain sections from 11-month-old 5xFAD transgenic mice (Tg6799 line)
T2 sequence (P05067 672-713 limits assumed): as above
Source text: To further investigate the affinity of the developed compounds toward various Aβ aggregates in situ, the intrinsic fluorescence properties of the compounds were employed for their ability to stain insoluble amyloid plaques. For these studies, brain sections from 11-month-old 5xFAD transgenic mice, which rapidly develop severe amyloid pathology, were co-stained with stilbenes and HJ3.4 antibody. HJ3.4 is an anti-amyloid antibody that binds to the N-terminal region of the Aβ peptide, thereby targeting both soluble and insoluble amyloid species. To evaluate the Aβ binding specificity of the compounds in vitro, brain sections from 11-month-old 5xFAD mice were washed with PBS (3 × 5 min) and blocked with bovine serum albumin (2% w/v BSA in PBS, pH 7.4, 10 min). Then, the sections were incubated with 25 μM of multifunctional compounds and sequentially stained with HJ3.4 antibody (Professor David Holtzman, 1 μg/mL) for 30 min. The brain sections were treated with 2% w/v BSA-PBS again for 4 min to remove any compounds or antibodies that were non-specifically binding to the tissue. Finally, the sections were washed with PBS (3 × 2 min) and DI water (2 min) and mounted with non-fluorescent mounting media (Vectashield). Colocalization analysis and determination of Pearson’s correlation coefficient were performed with the imaging software Fiji (ImageJ 1.52p). Mouse brains were harvested in compliance with the Institutional Animal Care and Use Committee of the University of Illinois at Urbana-Champaign (IACUC protocol #22094).

[6] = target: T3, Aβ42 fibrils (Homo sapiens, UniProt P05067); assay: Fluorescence spectra of compounds with Aβ42 fibrils; assay type: binding; details: excitation 380 nm; compound 5.0 µM in PBS with Aβ fibrils
T3 construct: commercial Aβ42 peptide (AnaSpec or GL Biochem); purchased AnaSpec or GL Biochem
T3 sequence (P05067 672-713 limits assumed): as above
Experimental: as §3, §4

[7] = system: N2a cells; assay: Alamar blue cytotoxicity assay; assay type: cell-based, mouse; details: among the cyclic amine EDG derivatives
Experimental: as §1, §2

[8] = system: Cu-Aβ42 cytotoxicity on N2a cells; assay: N2a cell rescue from Cu-induced Aβ42 cytotoxicity (Alamar blue); assay type: cell-based, mouse; details: [Aβ42] = [CuCl2] = 20 μM, compound 5 μM
Experimental: as §1
The Alamar Blue assay was carried out as described, with the following treatment reagents: 20 μM Aβ42 species, 5 μM compounds, and 20 μM CuCl2.

[9] = target: T4, Aβ40 peptide (Homo sapiens, UniProt P05067); assay: Aβ40 aggregation inhibition assay monitored by ThT fluorescence; assay type: biochemical; details: 25 μM Aβ40, 5 μM ThT, 5 μM compound, 37 °C, 48 h
T4 construct: a peptide solution of 25 μM Aβ40 monomers (AnaSpec, Fremont, CA, USA) was prepared; purchased AnaSpec
T4 sequence (P05067 672-711 limits assumed): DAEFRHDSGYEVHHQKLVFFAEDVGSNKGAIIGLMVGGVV
Experimental: To investigate the effect of these compounds on amyloid aggregation, inhibition of aggregation assays were performed using the Aβ40 peptide. Aβ40 has been implicated in inducing oxidative stress and is physiologically the most common isoform of the amyloid peptide and is therefore a widely used isoform in amyloid assays. Aβ40 is also known to have slower aggregation kinetics than Aβ42, which is helpful for studying the inhibition of the early aggregation pathway. […] Thus, a lower RFU can be interpreted as inhibiting the fibrillization of amyloids. The rest of the compounds show appreciable inhibition of Aβ aggregation as found in the Supplementary Materials (Figure S2), except for L9, which contains the morpholine EDG and a methoxy group on the EAG (Figure 3). The addition of the more polar oxygen heteroatom may instead favor hydrogen bonding interactions within the aqueous media, thereby solvating the compound and reducing early interactions with soluble aggregates. Lastly, although L2 and L3 show similar amyloid inhibition, the L3 compound lacking the o-methoxy group begins inhibition at an earlier time. […] This procedure was established in a previous publication.

[10] = target: soluble Aβ42 (Homo sapiens, UniProt P05067); assay: ThT control fluorescence turn-on assay with soluble Aβ42; assay type: binding; details: [Aβ42] = 5 μM, em 485 nm, ex 435 nm
Sequence of soluble Aβ42 (P05067 672-713 limits assumed): as the sequence (P05067 672-713 limits assumed) above
Experimental: Aβ42 and Aβ42 fibrils was used to control for soluble vs. insoluble amyloid.
text to prepare soluble and fibrillar Aβ42, the UV-vis absorbance was measured for the soluble
Aβ42 used in the control. In a cuvette, 100 μL o f [ A β42] = 20 μM. […]

[11] = target: T5, Aβ aggregates (sAβ and Aβ fibrils) (Homo sapiens, UniProt P05067); assay: Fluorescence turn-on assay with Aβ aggregates; assay type: binding; details: compound 5 μM in PBS pH 7.4
T5 construct: commercial Aβ42 peptide (AnaSpec or GL Biochem); purchased AnaSpec or GL Biochem
T5 sequence (P05067 672-713 limits assumed): as above
Experimental: A fluorescence turn-on assay was performed to interrogate the effect of structural differences on the fluorescence enhancement with Aβ aggregates. […] Increases in fluorescence intensity with different aggregates would be ideal for tools used in amyloid-based assays. […] Without the ortho-methoxy group on the EAG, there is greater fluorescence enhancement for Aβ fibrils over sAβ for L3 and L4. […] The larger fluorescence enhancement observed for L6 than L5 indicates the dimethylamine EDG/methoxy EAG pair has a greater TICT. The piperidine-EDG-containing L7 has only slightly higher turn-on with sAβ, which may be attributed to the ortho-methoxy group on the EAG. […] In this case, it appears that the methoxy on the EAG diminishes the overall fluorescence of the compound since L8 has greater baseline fluorescence and turn-on than L7. This is also the case for the morpholine-EDG-containing L9 and L10. The lack of a methoxy group on the L10 EAG, in conjunction with the oxygen heteroatom from the morpholine EDG, electronically favors turn-on with Aβ fibrils to a slight extent. […] Changing the EDG to a methyl piperazine, L11, increases baseline fluorescence and turn-on compared to L9. […] L11 and L12, both containing an N-methyl piperazine EDG, show similar turn-on with sAβ and fibrils, and the o-methoxy EAG of L11 increases overall baseline fluorescence compared to L12. […] The spectra for the remaining compounds can be found in the Supplementary Information (Figure S1). None of the three compounds with the highest fluorescence contained an o-methoxy group on the EAG.
All fluorescence measurements were performed using a SpectraMax M2e plate reader (Molecular Devices, San Jose, CA, USA). The fluorescence spectra of the compounds’ solution (100 μL PBS, 5.0 µM) were recorded with excitation at 380 nm and an emission wavelength from 400 to 680 nm. To PBS solutions (100 μL) of the compounds (5.0 µM), various Aβ42 species were added, with final concentrations of 5.0 µM and 25.0 µM, and their fluorescence spectra (λmax of emission) were determined as described above. […]

SMILES: CNc1ccc(/C=C/c2cc(CN3CCN(C)CCN(C)CC3)c(O)c(OC)c2)cc1 [Compound L2, (E)-2-((4,7-dimethyl-1,4,7-triazonan-1-yl)methyl)-6-methoxy-4-(4-(methylamino)styryl)phenol]
viability at 40 h, 20 µM [1]: 88%
Compound+sAβ λem (λmax of emission) [2]: 440 nm
Compound λem (λmax of emission) [3]: 460 nm
logD [4]: 1.48 ± 0.02
Pearson's coefficient (R) of colocalization with AF594-HJ3.4 [5]: 0.54
Compound+Fibrils λem (λmax of emission) [6]: 440 nm

SMILES: CN1CCN(C)CCN(Cc2cc(/C=C/c3ccc(N(C)C)cc3)ccc2O)CC1 [Compound L4, (E)-2-((4,7-dimethyl-1,4,7-triazonan-1-yl)methyl)-4-(4-(dimethylamino)styryl)phenol]
Compound+sAβ λem (λmax of emission) [2]: 435 nm
Compound λem (λmax of emission) [3]: 455 nm
effect on Cu-stabilized Aβ42 / Aβ42-induced toxicity [8]: toxicity was exacerbated
logD [4]: 1.44 ± 0.01
Pearson's coefficient (R) of colocalization with AF594-HJ3.4 [5]: 0.60
fluorescence enhancement / turn-on with Aβ aggregates [11]: greatest overall fluorescence enhancements
Compound+Fibrils λem (λmax of emission) [6]: 435 nm
inhibition of Aβ40 aggregation (ThT RFU) [9]: greatest inhibition; also recorded: best inhibition

The next lines start with results.

Compound+sAβ λem (λmax of emission) [2]: 455 nm
Compound λem (λmax of emission) [3]: 455 nm
logD [4]: 0.93 ± 0.02
Pearson's coefficient (R) of colocalization with AF594-HJ3.4 [5]: 0.71
Compound+Fibrils λem (λmax of emission) [6]: 450 nm
inhibition of Aβ40 aggregation (ThT RFU) [9]: least inhibition
SMILES: COc1cc(/C=C/c2ccc(N3CCOCC3)cc2)cc(CN2CCN(C)CCN(C)CC2)c1O [Compound L9, (E)-2-((4,7-dimethyl-1,4,7-triazonan-1-yl)methyl)-6-methoxy-4-(4-morpholinostyryl)phenol]
cell viability (ranking in words) [7]: best cell viability
effect on Cu-stabilized Aβ42 / Aβ42-induced toxicity [8]: inhibit both Cu-stabilized Aβ42- and Aβ42-induced toxicity; also recorded: rescue cells from Cu-Aβ42 cytotoxicity

fluorescence turn-on [10]: negligible turn-on
SMILES: Cc1ccc2c(c1)sc(-c1ccc(N(C)C)cc1)[n+]2C [ThT, Thioflavin T]

Compound+sAβ λem (λmax of emission) [2]: 430 nm
Compound λem (λmax of emission) [3]: 460 nm
logD [4]: 1.29 ± 0.01
Pearson's coefficient (R) of colocalization with AF594-HJ3.4 [5]: 0.68
Compound+Fibrils λem (λmax of emission) [6]: 430 nm
inhibition of Aβ40 aggregation (ThT RFU) [9]: best inhibition
SMILES: CN1CCN(C)CCN(Cc2cc(/C=C/c3ccc(N4CCCCC4)cc3)ccc2O)CC1 [Compound L8, (E)-2-((4,7-dimethyl-1,4,7-triazonan-1-yl)methyl)-4-(4-(piperidin-1-yl)styryl)phenol]
effect on Cu-stabilized Aβ42 / Aβ42-induced toxicity [8]: toxicity was exacerbated
fluorescence enhancement / turn-on with Aβ aggregates [11]: highest fluorescence turn-on; also recorded: greatest overall fluorescence enhancements

Compound+sAβ λem (λmax of emission) [2]: 430 nm
Compound λem (λmax of emission) [3]: 450 nm
logD [4]: 0.81 ± 0.01
Pearson's coefficient (R) of colocalization with AF594-HJ3.4 [5]: 0.65
Compound+Fibrils λem (λmax of emission) [6]: 435 nm
SMILES: CN1CCN(C)CCN(Cc2cc(/C=C/c3ccc(N4CCN(C)CC4)cc3)ccc2O)CC1 [Compound L12, (E)-2-((4,7-dimethyl-1,4,7-triazonan-1-yl)methyl)-4-(4-(4-methylpiperazin-1-yl)styryl)phenol]
cell viability (ranking in words) [7]: best cell viability
effect on Cu-stabilized Aβ42 / Aβ42-induced toxicity [8]: rescue cells from Cu-Aβ42 cytotoxicity
